Results reported in patent US20240158446A1, “CYCLIC COMPOUND HAVING SELECTIVE INHIBITORY ACTION ON KRAS OVER HRAS AND NRAS” (CHUGAI SEIYAKU KABUSHIKI KAISHA, priority 2021, published 2024).
pKd: −log10 of the molar value.

Experiments:
[1] = biological target: GDP-bound KRAS wild-type protein (Homo sapiens, UniProt P01116); assay: Binding to KRAS by surface plasmon resonance (SPR), Single Cycle Kinetics; conditions: SPR, Single Cycle Kinetics, GDP-bound KRAS wild-type protein; read-out: KRAS KD
[2] = biological target: GDP-bound NRAS wild-type protein (Homo sapiens, UniProt P01111); assay: Binding to NRAS by surface plasmon resonance (SPR), Single Cycle Kinetics; conditions: SPR, GDP-bound NRAS wild-type protein vs GDP-bound KRAS wild-type protein
Sequence of GDP-bound NRAS wild-type protein (P01111 whole entry): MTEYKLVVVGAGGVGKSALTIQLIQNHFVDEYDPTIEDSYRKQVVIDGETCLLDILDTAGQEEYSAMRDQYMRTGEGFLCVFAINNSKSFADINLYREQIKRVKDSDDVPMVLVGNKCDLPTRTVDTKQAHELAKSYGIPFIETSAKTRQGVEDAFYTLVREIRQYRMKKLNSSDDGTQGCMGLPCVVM

[3] = biological target: GDP-bound HRAS wild-type protein (Homo sapiens, UniProt P01112); assay: Binding to HRAS by surface plasmon resonance (SPR), Single Cycle Kinetics; conditions: SPR, GDP-bound HRAS wild-type protein vs GDP-bound KRAS wild-type protein
Sequence of GDP-bound HRAS wild-type protein (P01112 whole entry): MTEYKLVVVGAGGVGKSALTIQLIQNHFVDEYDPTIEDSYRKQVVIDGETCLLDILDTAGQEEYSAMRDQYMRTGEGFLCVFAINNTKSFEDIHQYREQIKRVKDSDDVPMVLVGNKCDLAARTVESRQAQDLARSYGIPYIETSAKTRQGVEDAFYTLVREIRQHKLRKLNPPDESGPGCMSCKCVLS

Sequence of GDP-bound KRAS wild-type protein (P01116 whole entry): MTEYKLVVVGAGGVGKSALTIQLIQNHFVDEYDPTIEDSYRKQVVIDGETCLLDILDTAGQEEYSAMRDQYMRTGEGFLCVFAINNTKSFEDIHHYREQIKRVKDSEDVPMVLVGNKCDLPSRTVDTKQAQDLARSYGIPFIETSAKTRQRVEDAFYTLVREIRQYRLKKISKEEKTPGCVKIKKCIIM

`CCO[C@@H]1C[C@H]2C(=O)NC3(CCC3)C(=O)N(C)[C@@H](C(C)C)C(=O)N(C)[C@H](C(=O)N(C)C)CC(=O)N(C)[C@@H](CC)C(=O)N[C@@H]([C@@H](C)CC)C(=O)N(C)CC(=O)N(C)[C@H]3C/C=C\CCN(C3=O)[C@@H](Cc3ccc(C(F)(F)F)cc3)C(=O)N(C)CC(=O)N[C@@H](CCc3cc(F)c(C(F)(F)F)c(F)c3)C(=O)N2C1` [PP1088] was tested. Which pKd [1] did it give?
Its pKd is 9.26.

And the “NRAS/KRAS (ratio of KD value for NRAS to KD value for KRAS)” value [2]?
Its value is “A (a compound having 10 or more and less than 20 is denoted as A)”.

And the “HRAS/KRAS (ratio of KD value for HRAS to KD value for KRAS)” value [3]?
The value was “A (a compound having 10 or more and less than 20 is denoted as A)”.

`CCO[C@@H]1C[C@H]2C(=O)NC3(CCC3)C(=O)N(C)[C@@H](CC(C)C)C(=O)N(C)[C@H](C(=O)N(C)C)CC(=O)N(C)[C@@H](CC)C(=O)N[C@@H]([C@@H](C)CC)C(=O)N(C)CC(=O)N(C)[C@H]3C/C=C\CCN(C3=O)[C@@H](Cc3ccc(C(F)(F)F)cc3)C(=O)N(C)CC(=O)N[C@@H](CCc3cc(F)c(C(F)(F)F)c(F)c3)C(=O)N2C1` [PP1089, (2S,8S,12R,14S,20S,23S,27S,30S,36S,38Z)-8-[2-[3,5-difluoro-4-(trifluoromethyl)phenyl]ethyl]-12-ethoxy-27-ethyl-20-isobutyl-N,N,4,19,22,26,32,35-octamethyl-30-[(1S)-1-methylpropyl]-3,6,9,15,18,21,25,28,31,34,42-undecaoxo-2-[[4-(trifluoromethyl)phenyl]methyl]spiro[1,4,7,10,16,19,22,26,29,32,35-undecazatricyclo[34.5.1.0^10,14]dotetracont-38-ene-17,1′-cyclobutane]-23-carboxamide] was tested. Which pKd [1] did it give?
Its pKd is 9.92.

What about the “NRAS/KRAS (ratio of KD value for NRAS to KD value for KRAS)” value [2] of the same compound?
Its value is “AA (a compound having 20 or more is denoted as AA)”.

And the “HRAS/KRAS (ratio of KD value for HRAS to KD value for KRAS)” value [3]?
Its value is “A (a compound having 10 or more and less than 20 is denoted as A)”.

Which results are given for `CCO[C@@H]1C[C@H]2C(=O)NC3(CCC3)C(=O)N(C)[C@@H](C3CCCC3)C(=O)N(C)[C@H](C(=O)N3CCCC3)CC(=O)N(C)[C@@H](CC)C(=O)N[C@@H]([C@@H](C)CC)C(=O)N(C)CC(=O)N(C)[C@H]3C/C=C\CCN(C3=O)[C@@H](Cc3ccc(C(F)(F)F)cc3)C(=O)N(C)CC(=O)N[C@@H](CCc3cc(F)c(C(F)(F)F)c(F)c3)C(=O)N2C1` [PP1090, (2S,8S,12R,14S,20S,23S,27S,30S,36S,38Z)-20-cyclopentyl-8-[2-[3,5-difluoro-4-(trifluoromethyl)phenyl]ethyl]-12-ethoxy-27-ethyl-4,19,22,26,32,35-hexamethyl-30-[(1S)-1-methylpropyl]-23-(pyrrolidine-1-carbonyl)-2-[[4-(trifluoromethyl)phenyl]methyl]spiro[1,4,7,10,16,19,22,26,29,32,35-undecazatricyclo[34.5.1.0^10,14]dotetracont-38-ene-17,1′-cyclobutane]-3,6,9,15,18,21,25,28,31,34,42-undecone]?
pKd [1]: 10.07; NRAS/KRAS (ratio of KD value for NRAS to KD value for KRAS) [2]: AA (a compound having 20 or more is denoted as AA); HRAS/KRAS (ratio of KD value for HRAS to KD value for KRAS) [3]: A (a compound having 10 or more and less than 20 is denoted as A)

`CCO[C@@H]1C[C@H]2C(=O)NC3(CCC3)C(=O)N(C)[C@@H](C3CCCC3)C(=O)N(C)[C@H](C(=O)N3CCC3)CC(=O)N(C)[C@@H](CC)C(=O)N[C@@H]([C@@H](C)CC)C(=O)N(C)CC(=O)N(C)[C@H]3C/C=C\CCN(C3=O)[C@@H](Cc3ccc(C(F)(F)F)cc3)C(=O)N(C)CC(=O)N[C@@H](CCc3cc(F)c(C(F)(F)F)c(F)c3)C(=O)N2C1` [PP1091, (2S,8S,12R,14S,20S,23S,27S,30S,36S,38Z)-23-(azetidine-1-carbonyl)-20-cyclopentyl-8-[2-[3,5-difluoro-4-(trifluoromethyl)phenyl]ethyl]-12-ethoxy-27-ethyl-4,19,22,26,32,35-hexamethyl-30-[(1S)-1-methylpropyl]-2-[[4-(trifluoromethyl)phenyl]methyl]spiro[1,4,7,10,16,19,22,26,29,32,35-undecazatricyclo[34.5.1.0^10,14]dotetracont-38-ene-17,1′-cyclobutane]-3,6,9,15,18,21,25,28,31,34,42-undecone] was tested. Which pKd [1] did it give?
The pKd was 9.96.

What about the “NRAS/KRAS (ratio of KD value for NRAS to KD value for KRAS)” value [2] of the same compound?
The value was “A (a compound having 10 or more and less than 20 is denoted as A)”.

And the “HRAS/KRAS (ratio of KD value for HRAS to KD value for KRAS)” value [3]?
The value was “B (a compound having 3 or more and less than 10 is denoted as B)”.

`CCO[C@@H]1C[C@H]2C(=O)NC3(CCC3)C(=O)N(C)[C@@H](C3CCCC3)C(=O)N(C)[C@H](C(=O)N3CCOCC3)CC(=O)N(C)[C@@H](CC)C(=O)N[C@@H]([C@@H](C)CC)C(=O)N(C)CC(=O)N(C)[C@H]3C/C=C\CCN(C3=O)[C@@H](Cc3ccc(C(F)(F)F)cc3)C(=O)N(C)CC(=O)N[C@@H](CCc3cc(F)c(C(F)(F)F)c(F)c3)C(=O)N2C1` [PP1092] was tested. Which pKd [1] did it give?
Its pKd is 9.82.

What about the “NRAS/KRAS (ratio of KD value for NRAS to KD value for KRAS)” value [2] of the same compound?
Its value is “A (a compound having 10 or more and less than 20 is denoted as A)”.

And the “HRAS/KRAS (ratio of KD value for HRAS to KD value for KRAS)” value [3]?
Its value is “A (a compound having 10 or more and less than 20 is denoted as A)”.

With `CCO[C@@H]1C[C@H]2C(=O)NC3(CCC3)C(=O)N(C)[C@@H](C3CCCC3)C(=O)N[C@H](C(=O)N(C)C)CC(=O)N(C)[C@@H](CC)C(=O)N[C@@H]([C@@H](C)CC)C(=O)N(C)CC(=O)N(C)[C@H]3C/C=C\CCN(C3=O)[C@@H](Cc3ccc(C(F)(F)F)cc3)C(=O)N(C)CC(=O)N[C@@H](CCc3cc(F)c(C(F)(F)F)c(F)c3)C(=O)N2C1` [PP1094] as the compound, how does the pKd [1] read?
Its pKd is 9.08.

And the “NRAS/KRAS (ratio of KD value for NRAS to KD value for KRAS)” value [2]?
The value was “A (a compound having 10 or more and less than 20 is denoted as A)”.

And the “HRAS/KRAS (ratio of KD value for HRAS to KD value for KRAS)” value [3]?
Its value is “B (a compound having 3 or more and less than 10 is denoted as B)”.

With `CCO[C@@H]1C[C@H]2C(=O)NC3(CCC3)C(=O)N(C)[C@@H](C3CCCC3)C(=O)N(C)[C@H](C)CC(=O)N(C)[C@@H](CC)C(=O)N[C@@H]([C@@H](C)CC)C(=O)N(C)CC(=O)N(C)[C@H]3C/C=C\CCN(C3=O)[C@@H](Cc3ccc(C(F)(F)F)cc3)C(=O)N(C)CC(=O)N[C@@H](CCc3cc(F)c(C(F)(F)F)c(F)c3)C(=O)N2C1` [PP1095] as the compound, how does the pKd [1] read?
The pKd was 9.74.

What about the “NRAS/KRAS (ratio of KD value for NRAS to KD value for KRAS)” value [2] of the same compound?
The value was “B (a compound having 3 or more and less than 10 is denoted as B)”.

What about the “HRAS/KRAS (ratio of KD value for HRAS to KD value for KRAS)” value [3] of the same compound?
Its value is “B (a compound having 3 or more and less than 10 is denoted as B)”.

How did the pKd [1] turn out when `CCO[C@@H]1C[C@H]2C(=O)NC3(CCCC3)C(=O)N(C)[C@@H](C3CCCC3)C(=O)N(C)[C@H](C)CC(=O)N(C)[C@@H](CC(C)C)C(=O)N[C@@H]([C@@H](C)CC)C(=O)N(C)CC(=O)N(C)[C@H]3C/C=C\CCN(C3=O)[C@@H](Cc3ccc(C(F)(F)F)cc3)C(=O)N(C)CC(=O)N[C@@H](CCc3cc(F)c(C(F)(F)F)c(F)c3)C(=O)N2C1` [PP1096] was run?
Its pKd is 9.62.

And the “NRAS/KRAS (ratio of KD value for NRAS to KD value for KRAS)” value [2]?
The value was “B (a compound having 3 or more and less than 10 is denoted as B)”.

What about the “HRAS/KRAS (ratio of KD value for HRAS to KD value for KRAS)” value [3] of the same compound?
Its value is “B (a compound having 3 or more and less than 10 is denoted as B)”.

How did the pKd [1] turn out when `CCO[C@@H]1C[C@H]2C(=O)NC3(CCC3)C(=O)N(C)[C@@H](C3CCCC3)C(=O)N3CCC[C@@H]3CC(=O)N(C)[C@@H](CC)C(=O)N[C@@H]([C@@H](C)CC)C(=O)N(C)CC(=O)N(C)[C@H]3C/C=C\CCN(C3=O)[C@@H](Cc3ccc(C(F)(F)F)cc3)C(=O)N(C)CC(=O)N[C@@H](CCc3cc(F)c(C(F)(F)F)c(F)c3)C(=O)N2C1` [PP1097, (2S,8S,12R,14S,20S,26R,30S,33S,39S,41Z)-20-cyclopentyl-8-[2-[3,5-difluoro-4-(trifluoromethyl)phenyl]ethyl]-12-ethoxy-30-ethyl-4,19,29,35,38-pentamethyl-33-[(1 S)-1-methylpropyl]-2-[[4-(trifluoromethyl)phenyl]methyl]spiro[1,4,7,10,16,19,22,29,32,35,38-undecazatetracyclo[37.5.1.0^10,14.022,26]pentatetracont-41-ene-17,1′-cyclobutane]-3,6,9,15,18,21,28,31,34,37,45-undecone] was run?
The pKd was 9.92.

What about the “NRAS/KRAS (ratio of KD value for NRAS to KD value for KRAS)” value [2] of the same compound?
Its value is “B (a compound having 3 or more and less than 10 is denoted as B)”.

What about the “HRAS/KRAS (ratio of KD value for HRAS to KD value for KRAS)” value [3] of the same compound?
The value was “B (a compound having 3 or more and less than 10 is denoted as B)”.

How did the pKd [1] turn out when `CCO[C@@H]1C[C@H]2C(=O)NC3(CCC3)C(=O)N(C)[C@@H](C3CCCC3)C(=O)N[C@H](C)CC(=O)N(C)[C@@H](CC)C(=O)N[C@@H]([C@@H](C)CC)C(=O)N(C)CC(=O)N(C)[C@H]3C/C=C\CCN(C3=O)[C@@H](Cc3ccc(C(F)(F)F)cc3)C(=O)N(C)CC(=O)N[C@@H](CCc3cc(F)c(C(F)(F)F)c(F)c3)C(=O)N2C1` [PP1098] was run?
The pKd was 9.17.

And the “NRAS/KRAS (ratio of KD value for NRAS to KD value for KRAS)” value [2]?
The value was “B (a compound having 3 or more and less than 10 is denoted as B)”.

What about the “HRAS/KRAS (ratio of KD value for HRAS to KD value for KRAS)” value [3] of the same compound?
Its value is “B (a compound having 3 or more and less than 10 is denoted as B)”.

Which results are given for `CC[C@H](C)[C@@H]1NC(=O)[C@H](CC)N(C)C(=O)C[C@@H](C)N(C)C(=O)[C@H](C2CCCC2)N(C)C(=O)C2(CCCC2)NC(=O)[C@@H]2CCCN2C(=O)[C@H](CCc2cc(F)c(C(F)(F)F)c(F)c2)NC(=O)CN(C)C(=O)[C@H](Cc2ccc(C(F)(F)F)cc2)N2CC/C=C\C[C@@H](C2=O)N(C)C(=O)CN(C)C1=O` [PP1101]?
pKd [1]: 9.34; NRAS/KRAS (ratio of KD value for NRAS to KD value for KRAS) [2]: B (a compound having 3 or more and less than 10 is denoted as B); HRAS/KRAS (ratio of KD value for HRAS to KD value for KRAS) [3]: B (a compound having 3 or more and less than 10 is denoted as B)

How did the pKd [1] turn out when `CC[C@H](C)[C@@H]1NC(=O)[C@H](CC(C)C)N(C)C(=O)C[C@@H](C)N(C)C(=O)[C@H](C2CCCC2)N(C)C(=O)C2(CCCC2)NC(=O)[C@@H]2CCCN2C(=O)[C@H](CCc2cc(F)c(C(F)(F)F)c(F)c2)NC(=O)CN(C)C(=O)[C@H](Cc2ccc(C(F)(F)F)cc2)N2CC/C=C\C[C@@H](C2=O)N(C)C(=O)CN(C)C1=O` [PP1102] was run?
Its pKd is 9.02.

What about the “NRAS/KRAS (ratio of KD value for NRAS to KD value for KRAS)” value [2] of the same compound?
The value was “B (a compound having 3 or more and less than 10 is denoted as B)”.

And the “HRAS/KRAS (ratio of KD value for HRAS to KD value for KRAS)” value [3]?
Its value is “A (a compound having 10 or more and less than 20 is denoted as A)”.
